Broadly, the IC50 is the concentration that gives 50% inhibition. Lower therefore signals higher potency.

Experiment [1] has as its target T1, human liver glycogen phosphorylase a (HLGPa) (Homo sapiens, UniProt P06737).
T1 construct: creating a full-length cDNA fused at the 5′ end to codons for methionine-glycine-alanine-histidine; 6x histidine tag (leader Met-Gly-Ala-His6-Gly-Gly) (N); Tev protease cleavage site (Glu-Asn-Leu-Tyr-Phe-Gln-Gly-Gly) (N); made in house; host or cells: E. coli (bacterial expression plasmid pTXK1007LTev)
T1 sequence (P06737 1-847): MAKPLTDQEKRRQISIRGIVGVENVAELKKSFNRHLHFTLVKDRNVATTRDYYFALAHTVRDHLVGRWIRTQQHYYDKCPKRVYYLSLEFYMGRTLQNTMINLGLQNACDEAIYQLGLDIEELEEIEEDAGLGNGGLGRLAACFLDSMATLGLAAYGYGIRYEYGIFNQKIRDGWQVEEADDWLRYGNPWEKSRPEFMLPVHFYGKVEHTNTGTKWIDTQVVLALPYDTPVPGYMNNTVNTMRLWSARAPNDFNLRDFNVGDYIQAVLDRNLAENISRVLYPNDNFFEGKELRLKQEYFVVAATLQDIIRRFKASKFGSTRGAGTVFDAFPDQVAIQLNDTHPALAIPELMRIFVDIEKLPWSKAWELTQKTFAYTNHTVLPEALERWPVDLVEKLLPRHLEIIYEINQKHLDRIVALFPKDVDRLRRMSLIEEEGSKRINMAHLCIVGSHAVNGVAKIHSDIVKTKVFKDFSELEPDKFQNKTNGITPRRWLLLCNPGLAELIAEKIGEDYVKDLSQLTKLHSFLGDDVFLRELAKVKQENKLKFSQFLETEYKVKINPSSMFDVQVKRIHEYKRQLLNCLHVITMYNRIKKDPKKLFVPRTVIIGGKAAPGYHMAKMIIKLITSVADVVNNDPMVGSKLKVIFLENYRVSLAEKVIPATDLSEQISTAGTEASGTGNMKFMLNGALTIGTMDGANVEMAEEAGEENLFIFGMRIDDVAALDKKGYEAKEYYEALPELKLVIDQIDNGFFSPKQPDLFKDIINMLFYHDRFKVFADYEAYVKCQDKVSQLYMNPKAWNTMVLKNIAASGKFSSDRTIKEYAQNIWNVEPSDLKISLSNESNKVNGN
The experiment can be described thus: Human liver glycogen phosphorylase a enzymatic activity assay. It counts as biochemical. The note with it: 15 nM HLGPa, coupled resorufin fluorescence readout; assay run with and without 10 mM glucose, condition of the value not stated. As to the method: The purified glycogen phosphorylase (GP) enzyme, wherein glycogen phosphorylase is in the activated “a” state, referred to as human liver glycogen phosphorylase a (HLGPa), can be obtained according to the following procedures.
Frozen purified glycogen phosphorylase (HLGPb) was thawed in at 4° C. then dialyzed overnight into 50 mM HEPES, 100 mM NaCl, pH 7.4. 15 mg of the dialyzed HLGPb, 3 mM ATP and 5 mM MgCl2 was incubated with 500 μl of the prepared Affi-Gel immobilized phosphorylase kinase beads equilibrated with 50 mM HEPES, 100 mM NaCl, pH 7.4. The degree of phosphorylation was monitored by following the increase in activity at 10 minute intervals using the assay system outlined below. […] MgCl2, 3.5 mM KH2PO4, 0.5 mM DTT, 0.4 mg/mL glycogen, 7.5 mM Glucose, 0.50 mM β-nicotinamide adenine dinucleotide (β-NAD), 3 U/mL phosphoglucomutase, and 5 U/mL glucose-6-phosphate dehydrogenase, Activity was monitored by following the reduction of NAD^+ at 340 nm. […]
An enzymatic assay was developed to measure the response of the activated form of glycogen phosphorylase (HLGPa) to small molecule (<1000 Da.) compounds. […] The change in fluorescence due to product formation was measured on a fluorescence plate reader (Molecular Devices SpectraMax M2) with excitation at 560 nm and emission at 590 nm.

The test system of experiment [2] is male CD rats. The experiment can be described thus: In vivo glucagon challenge model. The note with it: glucagon 10 ug/kg + Sandostatin i.v. 2 hr after dosing, serum glucose 0-20 min. The arrangement: species or system rat. On the procedure:
Jugular vein cannulated male CD rats (220-260 g) (Charles Rivers, Raleigh, N.C.) were received 1-2 days after cannulation, housed individually on Alpha-Dri™ bedding (Shepherd Specialty Papers, Inc., Kalamazoo, Mich.) with free access to food (Lab Diet 5001, PMI Nutrition International, Brentwood, Mo.) and water and maintained on a 12 h light/dark cycle at 21° C. and 50% relative humidity for 3-4 days prior to the glucagon challenge studies. On the day of the study, the rats were sorted by body weight into treatment groups (N=4-5) and housed individually in shoe box cages with clean Alpha-dri bedding. The cannula lines were opened by removal of 0.2 ml blood and flushed with 0.2 ml sterile saline. After a one hour acclimation, blood samples were collected to determine basal glucose and the rats were orally dosed with vehicle (5% DMSO: 30% Solutol HS15: 20% PEG400: 45% 25 mM N-methylglucamine) or drug (5 ml/kg). Two hr after drug dosing, a time zero blood sample (0.4 ml) was collected for determination of glucose and the rats were dosed through the jugular vein with Sandostatin, 0.5 mg/kg, (Novartis Pharmaceuticals Corp., East Hanover, N.J.) and glucagon, 10 ug/kg (Bedford Laboratories, Bedford, Ohio). Blood samples were collected after 10 and 20 min for glucose determination. Whole blood was placed in a Terumo Capiject blood collection tube (Terumo Medical. Corp., Elkton, Md.), allowed to sit at room temperature for 20-30 minutes and then centrifuged (3,000×G) to obtain serum. Serum levels of glucose were determined using an Olympus AU640™ clinical chemistry immuno-analyzer (Olympus America Inc., Melville, N.Y.). The % reduction (% R) of the vehicle glucose AUG was calculated for each drug treatment using the formula % reduction=100*1−(AUG drug/AUC vehicle), where AUG was calculated from serum glucose values using the equation AUG=(T0+T10)/2*10+(T10+T20)/2*10−(T0*20).

`COCc1cc(C)c(NC(=O)Nc2cc(-c3ccc(OC)nc3)ccc2C(=O)N[C@H](C(=O)O)[C@@H](C)OC(C)(C)C)c(C)c1` [Example 1, O-(1,1-Dimethylethyl)-N-({2-{[({2,6-dimethyl-4-[(methyloxy)methyl]phenyl}amino)carbonyl]amino}-4-[6-(methyloxy)-3-pyridinyl]phenyl}carbonyl)-L-threonine] returned an IC50 in experiment [1] of 5 nM. The “% R (% reduction of the vehicle glucose AUC)” value in experiment [2] (0.5 mg/kg oral) is 32%; in experiment [2] (2 mg/kg oral) it was 53%; in experiment [2] (5 mg/kg oral), 63%; in experiment [2] (15 mg/kg oral) it was 70%.

Source of the values: patent US20100234433A1, “GLYCOGEN PHOSPHORYLASE INHIBITOR COMPOUND AND PHARMACEUTICAL COMPOSITION THEREOF” (priority 2007, published 2010).
